Experimental findings from US9029367B2, “BACE inhibitors” (Eli Lilly and Company, priority 2013, dated 2015) are described below.

For assay [1], the system named is Abeta released by primary cortical neurons from PDAPP transgenic embryonic mice. Briefly: PDAPP Primary Neuronal Assay (Abeta 1-40 and 1-42 sandwich ELISAs). The class given is cell-based. The note with it: Mus musculus, Primary cortical neuron, 24 h incubation. As to the method: For in vitro enzymatic and cellular assays, test compounds are prepared in DMSO to make up a 10 mM stock solution. […] A confirmatory whole cell assay is also run in primary neuronal cultures generated from PDAPP transgenic embryonic mice (May, et al., Journal of Neuroscience, 31, 16507-16516 (2011)). Primary cortical neurons are prepared from Embryonic Day 16 PDAPP embryos and cultured in 96 well plates (15×10^4 cells/well in DMEM/F12 (1:1) plus 10% FBS). After 2 days in vitro, culture media is replaced with serum free DMEM/F12 (1:1) containing B27 supplement and 2 μM (final) of Ara-C (Sigma, C1768). At day 5 in vitro, neurons are incubated at 37° C. for 24 h in the presence/absence of inhibitors (diluted in DMSO) at the desired concentration. […] Natl. Acad. Sci. USA 94, 1550-1555 (1997)). The concentration of Abeta released in the conditioned media following the compound treatment corresponds to the activity of BACE1 under such conditions.

Assay [2] relates to Abeta 1-x peptide levels in brain of young female PDAPP mice. In words: In vivo Inhibition of Beta-Secretase (brain Abeta 1-x in PDAPP mice). Set-up: species or system mouse. The settings on record: three hours after dosing, compared to vehicle-treated mice. An excerpt:
Several animal models, including mouse, guinea pig, dog, and monkey, may be used to screen for inhibition of beta-secretase activity in vivo following compound treatment Animals used in this invention can be wild type, transgenic, or gene knockout animals. […] One to twenty-four hours following the administration of compound, animals are sacrificed, and brains are removed for analysis of Abeta 1-x. “Abeta 1-x” as used herein refers to the sum of Abeta species that begin with residue 1 and end with a C-terminus greater than residue 28. This detects the majority of Abeta species and is often called “total Abeta”. Total Abeta peptides (Abeta 1-x) levels are measured by a sandwich ELISA, using monoclonal 266 as a capture antibody and biotinylated 3D6 as reporting antibody. (See May, et al., Journal of Neuroscience, 31, 16507-16516 (2011)).
For acute studies, compound or appropriate vehicle is administered and animals are sacrificed at about 3 hours after dosing. Brain tissue, is obtained from selected animals and analyzed for the presence of Abeta 1-x. After chronic dosing brain tissues of older APP transgenic animals may also be analyzed for the amount of beta-amyloid plaques following compound treatment.

The next assay concerns the target human BACE1 (1-460):Fc (Homo sapiens (Human), UniProt P56817). Briefly: BACE1 FRET Assay. The class given is biochemical. The settings on record: purified recombinant huBACE1:Fc, FRET substrate, pH 4.6; Mean ± SEM. Here is the method:
For in vitro enzymatic and cellular assays, test compounds are prepared in DMSO to make up a 10 mM stock solution. The stock solution is serially diluted in DMSO to obtain a ten-point dilution curve with final compound concentrations ranging from 10 μM to 0.05 nM in a 96-well round-bottom plate before conducting the in vitro enzymatic and whole cell assays.
Human BACE1 (accession number: AF190725) is cloned from total brain cDNA by RT-PCR. The nucleotide sequences corresponding to amino acid sequences #1 to 460 are inserted into the cDNA encoding human IgG1 (Fc) polypeptide (Vassar et al., Science, 286, 735-742 (1999)). This fusion protein of BACE1 (1-460) and human Fc, named huBACE1:Fc, is constructed into the pJB02 vector. Human BACE1 (1-460):Fc (huBACE1:Fc) is transiently expressed in HEK293 cells. 250 μg cDNA of each construct is mixed with Fugene 6 and added to 1 liter HEK293 cells. Four days after the transfection, conditioned media are harvested for purification. huBACE1:Fc is purified by Protein A chromatography. The enzyme is stored at −80° C. in small aliquots. (See Yang, et. al., J. Neurochemistry, 91(6) 1249-59 (2004)
Serial dilutions of test compounds are prepared as described above. Compounds are further diluted 20× in KH2PO4 buffer. Ten μL of each dilution is added to each well on row A to H of a corresponding low protein binding black plate containing the reaction mixture (25 μL of 50 mM KH2PO4, pH 4.6, 1 mM TRITON® X-100, 1 mg/mL Bovine Serum Albumin, and 15 μM of FRET substrate) (See Yang, et. al., J. Neurochemistry, 91(6) 1249-59 (2004)). The content is mixed well on a plate shaker for 10 minutes. Fifteen μL of two hundred pM human BACE1 (1-460):Fc (See Vasser, et al., Science, 286, 735-741 (1999)) in the KH2PO4 buffer is added to the plate containing substrate and test compounds to initiate the reaction. The RFU of the mixture at time 0 is recorded at excitation wavelength 355 nm and emission wavelength 460 nm, after brief mixing on a plate shaker. The reaction plate is covered with aluminum foil and kept in a dark humidified oven at room temperature for 16 to 24 h. The RFU at the end of incubation is recorded with the same excitation and emission settings used at time 0. The difference of the RFU at time 0 and the end of incubation is representative of the activity of BACE1 under the compound treatment. RFU differences are plotted versus inhibitor concentration and a curve is fitted with a four-parameter logistic equation to obtain the IC50 values. (May, et al., Journal of Neuroscience, 31, 16507-16516 (2011)).

Where [3] appears, read: Abeta 1-40, Mean ± SEM, read-out: PDAPP Neuron A-beta (1-40) ELISA IC50.
[4] abbreviates: Abeta 1-42, Mean ± SEM, read-out: PDAPP Neuron A-beta (1-42) ELISA IC50.

Each structure is given as a SMILES string. pIC50: −log10 of the molar value. Structures can show the parent of a compound that is named as a salt. Where two headings read alike, the source gives them in different places.

Chain of human BACE1 (1-460):Fc (P56817 22-460): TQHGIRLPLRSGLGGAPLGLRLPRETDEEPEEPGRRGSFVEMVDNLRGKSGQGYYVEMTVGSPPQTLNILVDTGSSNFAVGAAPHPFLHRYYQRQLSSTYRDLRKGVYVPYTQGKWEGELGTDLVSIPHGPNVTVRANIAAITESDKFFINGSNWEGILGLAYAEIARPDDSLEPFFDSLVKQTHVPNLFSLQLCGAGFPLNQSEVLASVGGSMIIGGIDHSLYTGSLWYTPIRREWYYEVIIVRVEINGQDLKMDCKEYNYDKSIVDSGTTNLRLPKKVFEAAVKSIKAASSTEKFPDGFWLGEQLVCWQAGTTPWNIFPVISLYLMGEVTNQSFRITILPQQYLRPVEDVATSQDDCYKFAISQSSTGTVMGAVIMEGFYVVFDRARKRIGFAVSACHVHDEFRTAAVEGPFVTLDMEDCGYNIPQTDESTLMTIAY

Take `COc1cnc(C(=O)Nc2ccc(F)c([C@]34COC[C@@]3(F)CSC(N)=N4)c2)cn1.Cl` [Example 2, N-[3-[(4aR,7aS)-2-Amino-4a-fluoro-5,7-dihydro-4H-furo[3,4-d][1,3]thiazin-7a-yl]-4-fluoro-phenyl]-5-methoxy-pyrazine-2-carboxamide hydrochloride]: the figures for the negative logarithm of the IC50 (pIC50) in assay [1] (setting [3]) and in assay [1] (setting [4]) were 7.53 and 7.66, respectively. In addition, the “Abeta 1-x peptide levels reduced in brain cortex” value in assay [2] (10 mg/kg oral dose) was “approximately 45%”; in assay [2] (30 mg/kg oral dose) it was “approximately 54%”. In addition, the figures for the “Abeta 1-x peptide levels reduced in brain hippocampus” value in assay [2] (10 mg/kg oral dose) and in assay [2] (30 mg/kg oral dose) were “approximately 40%” and “approximately 52%”, respectively.
Take `Cl.N#Cc1ccc(C(=O)Nc2ccc(F)c([C@]34COC[C@@]3(F)COC(N)=N4)c2)nc1` [Example 34, N-[3-[(4aR,7aS)-2-Amino-4a-fluoro-5,7-dihydro-4H-furo[3,4-d][1,3]oxazin-7a-yl]-4-fluoro-phenyl]-5-cyano-pyridine-2-carboxamide hydrochloride]: the negative logarithm of the IC50 (pIC50) (commonly the IC50 on a negative log10 scale, so that one unit is a factor of ten) in assay [1] (setting [3]) was 7.30; in assay [1] (setting [4]) it was 7.44; on human BACE1 (1-460):Fc, 7.35. Further, the “Abeta 1-x peptide levels reduced in brain hippocampus” value in assay [2] (10 mg/kg oral dose) is “approximately 26%”.
Take `NC1=N[C@@]2(c3cc(NC(=O)c4cnc(OCC5(F)CC5)cn4)ccc3F)COC[C@@]2(F)CO1` [Example 57, N-[3-[(4aR,7aS)-2-Amino-4a-fluoro-5,7-dihydro-4H-furo[3,4-d][1,3]oxazin-7a-yl]-4-fluoro-phenyl]-5-[(1-fluorocyclopropyl)methoxy]pyrazine-2-carboxamide hydrochloride]: the pIC50 in assay [1] (setting [3]) is 6.73; in assay [1] (setting [4]), 6.74; on human BACE1 (1-460):Fc it was 7.59.
Consider `Cl.N#Cc1ccc(C(=O)Nc2ccc(F)c([C@]34COC[C@@]3(F)CSC(N)=N4)c2)nc1` [Example 3, N-[3-[(4aR,7aS)-2-Amino-4a-fluoro-5,7-dihydro-4H-furo[3,4-d][1,3]thiazin-7a-yl]-4-fluoro-phenyl]-5-cyano-pyridine-2-carboxamide hydrochloride], for which the pIC50 was 7.69 in assay [1] (setting [3]), 7.79 in assay [1] (setting [4]) and 8.18 at human BACE1 (1-460):Fc. The “Abeta 1-x peptide levels reduced in brain cortex” value in assay [2] (10 mg/kg oral dose) is “approximately 46%”. For the same molecule, the “Abeta 1-x peptide levels reduced in brain hippocampus” value in assay [2] (10 mg/kg oral dose) is given as “approximately 34%”.
In the case of `Cl.NC1=N[C@@]2(c3cc(NC(=O)c4ccc(F)cn4)ccc3F)COC[C@@]2(F)CS1` [Example 1, N-[3-[(4aR,7aS)-2-Amino-4a-fluoro-5,7-dihydro-4H-furo[3,4-d][1,3]thiazin-7a-yl]-4-fluoro-phenyl]-5-fluoro-pyridine-2-carboxamide hydrochloride], the pIC50 in assay [1] (setting [3]) was 7.08; in assay [1] (setting [4]) it was 7.11; at human BACE1 (1-460):Fc, 7.81. Moreover, the “Abeta 1-x peptide levels reduced in brain cortex” value in assay [2] (30 mg/kg oral dose) was “approximately 48%”. For the same molecule, in assay [2] (30 mg/kg oral dose), the “Abeta 1-x peptide levels reduced in brain hippocampus” value is reported as “approximately 37%”.
